Square brackets hold non-standard residues; d marks the D form. Peptide text beside a SMILES is read from it. d(pT) = C[C@H](OP(=O)(O)O)[C@@H](N)C(=O)O; 2Nal = N[C@@H](Cc1ccc2ccccc2c1)C(=O)O; Pip = O=C(O)[C@@H]1CCCCN1
How the values were obtained:
[1] = biological target: T1, hPin1 PPIase domain (Homo sapiens, UniProt Q13526); assay: Isothermal titration calorimetry (ITC), isolated PPIase domain; assay type: binding
T1 construct: The hPin1 PPIase domain comprising of amino acid residues Gly45-Glu163 was amplified by PCR; made in house; host or cells: E. coli BL21(DE3) (pET28a)
Protocol: Calorimetric experiments were performed using a VP-ITC titration calorimeter (MicroCal, Inc, Northampton, Mass.) at 10° C. All solutions were degassed under vacuum prior to use. Solutions of hPin1 and hPin1 PPIase domain were dialyzed against 10 mM Hepes (pH 7.8). The protein concentration in the sample cell was adjusted to 6.5 μM using the same batch of buffer. Protein concentrations were determined as described above. The volume of the protein solution in the sample cell was 1.4 ml. The injection syringe was filled with 300 μl solution of peptide 17 (see table III) (250 μM in the same batch of buffer as used for dialyses). Each titration experiment consisted of a single 1 μl injection followed by 16 identical injections of 5 μl solution of peptide 17.
The stability of peptides 15 and 17 in cytoplasmic extracts from HeLa cells was investigated using MALDI-TOF mass spectrometry and capillary electrophoresis, respectively. In the cytosolic incubation mixture, streptavidin sepharose beads served to isolate peptide 15 fragments after prolonged incubation. […] Therefore, phosphopeptides are useless for evaluating Pin1 functions in vivo unless dephosphorylation can be avoided.

[2] = system: X. laevis embryos; assay: Microinjection in X. laevis embryos, cell division; assay type: in vivo; details: for number of vital embryos: 5 hours
Protocol: FIG. 8 depicts the blocking of cell division by the injection of peptide 17 in X. laevis embryos. 50-300 pmol of peptide 17 or 300 pmol of its nonphosphorylated derivative (control) dissolved in 10 nl PBS buffer were microinjected in the animal half of X. laevis embryos at stage 2 of development. Embryos with large and/or apoptotic appearing cells surrounded by normally developing cells were counted after further 5 hours (stage 8-9) of development. […] Each value is the average of four independent experiments.
FIGS. 9A-F depicts phenotypic analysis of X. laevis embryos after injection of peptide 17. 300 pmol of peptide 17 or its nonphosphorylated derivative dissolved in 10 nl PBS buffer were injected in the animal half of X. laevis embryos at stage 2 of development. 1.5 hour at stage 6 (A), 2.5 hours at stage 7 (B) and 4-5 hours at stage 8-9 (C, D) after injection enlarged cells became visible. Cells that are blocked in cell division are marked with a white arrow. Controls of uninjected embryos of stage 8-9 and embryos that were injected with 300 pmol of the nonphosphorylated derivative of peptide 17 are shown in panels E and F. The site where the nonphosphorylated derivative of peptide 17 was injected is marked with a white arrow (F).
FIGS. 10A-D depict the rescue of peptide 17 caused cell division block in X. laevis embryos by hPin1 (A, B) and different hPin1 variants (C, D). FIG. 10A depicts the time course of V5-tagged hPin1 expression was analyzed by preparation of X. laevis embryo lysate 1, 2 and 4 hours after injection of 1, 2 or 3 ng of V5-tagged hPin1 mRNA. In every case, the injected volume was 10 nl. Lysates were prepared in lysis buffer containing phosphatase and protease inhibitors. Samples were separated by SDS PAGE followed by western blotting. Endogenous XlPin1 and V5-tagged hPin1 were detected using an anti hPin1 PPIase domain antiserum as primary antibody followed by incubation with a horseradish peroxidase-conjugated secondary antibody. Visualization was done using the SuperSignal® substrate. […] In every case, the whole volume of injection was 10 nl. The indicated amount of the mRNA was injected in the animal half of 30 embryos at stage 2 of development. Embryos with large and/or apoptotic appearing cells surrounded by normally developed cells were counted after additional 5 hours of development (stage 8-9). […] Each percentage of vital embryos shown in the figure is the average of four independent experiments. FIG. 10C indicates the expression of V5-tagged hPin1 variants was evaluated by preparation of embryo lysate after 4 hours of injection of the respective mRNA (2 ng) in X. laevis embryos. Lysates were prepared in lysis buffer containing phosphatase and protease inhibitors. Samples were separated using SDS PAGE followed by western blot analysis. Endogenous XlPin1 and injected V5-tagged hPin1 variants were detected using an anti hPin1 PPIase domain antiserum as primary antibody and a horseradish peroxidase-conjugated secondary antibody. Visualization was done by a chemiluminescent reaction using the SuperSignal® substrate (Pierce). FIG. 10D depicts 250 pmol of peptide 17 was coinjected with 2 ng mRNA of the indicated V5-tagged hPin1 variant (whole volume 10 nl) in the animal half of 30 X. laevis embryos at stage 2 of development. Results were analyzed as described for FIG. 10B. Each percentage of vital embryos shown in the figure is the average of four independent experiments.
Microinjection was done into the animal half of X. laevis embryos at stage 2 of development. In every case, the injection volume was 10 nl. Immunofluorescence studies of frozen X. laevis embryo sections were performed as previously described (Julius et al., 2000). Ten-micrometer cryosections of stage 8 embryos were labelled using a monoclonal anti hPin1 antibody (mouse) followed by incubation with Alexa Fluor 546™-conjugated anti mouse antibody of goat serum (Molecular Probes). […]

T1 sequence (Q13526 45-163): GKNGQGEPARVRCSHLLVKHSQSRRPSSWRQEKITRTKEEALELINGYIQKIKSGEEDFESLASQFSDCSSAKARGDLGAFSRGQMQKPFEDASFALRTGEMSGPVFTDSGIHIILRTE

CC(=O)N[C@@H](Cc1ccccc1)C(=O)N[C@@H](C(=O)N1CCCC[C@H]1C(=O)N[C@@H](Cc1ccc2ccccc2c1)C(=O)N[C@@H](CCC(N)=O)C(N)=O)[C@H](C)OP(=O)(O)O [Peptide 17, Ac-Phe-D-Thr(PO3H2)-Pip-Nal-Gln-NH2] (Ac-F[d(pT)][Pip][2Nal]Q-NH2)
thermodynamic constants, isolated PPIase domain versus full-length hPin1 [1]: same thermodynamic constants | number of vital embryos ([2]; 250 pmol peptide 17, coinjection of 2 ng of V5-tagged hPin1 mRNA): up to 73% | number of vital embryos ([2]; 250 pmol peptide 17, without coinjection of mRNA): 18% | normal embryos after microinjection ([2]; 300 pmol, stage 2 embryos, examined 5 hours after injection): very low number of normal embryos | effect on development of the embryos ([2]; microinjection at stage 2): cell cycle blockage and embryonic death
